# Assay results as given in patent US5246830A, “Enzymatic process for the determination of β-lactam antibiotics” (Ucb Bioproducts, S.A., priority 1990, dated 1993).
# Experiments:
# [1] = biological target: T1, enzyme R39 (soluble D-alanyl-D-alanine carboxypeptidase produced by Actinomadura R39) (Actinomadura sp. R39, UniProt P39045); assay: Enzymatic determination of penicillin G in milk with various D-amino acids or glycine as activators (Example 5); assay type: biochemical
# T1 construct: added to milk or serum samples
# Protocol: The process is the same as in example 3, except that the aqueous solution containing 100 mg/ml of D-alanine (test I) is respectively replaced by an aqueous solution containing 100 mg/ml of D-phenylalanine (test II), of D-serine (test III), of D-histidine (test IV), of D-methionine (test V), of D-2-aminobutyric acid (test VI), or by an aqueous solution containing 200 mg/ml of glycine (test VII).
# [2] = biological target: T1, enzyme R39 (soluble D-alanyl-D-alanine carboxypeptidase produced by Actinomadura R39); assay: Enzymatic determination of penicillin G in 3 ml milk samples (Example 3); assay type: biochemical; conditions: for Coloration: 24 picomoles enzyme R39, 10 min + 5 min
# Protocol: The process is the same as in Example 1, except that:
# the samples contain 3 ml of milk (instead of 50 μl);
# 24 picomoles (instead of 1.5 picomole) of enzyme R39 dissolved in 150 μl of 0.5M Hepes buffer (pH=8.0) and 600 μl of an aqueous solution containing 100 mg/ml of D-alanine are added to each sample;
# the first incubation lasts 10 minutes (instead of 4 minutes);
# 120 μl (instead of 5 μl) of the aqueous solution of [(N-benzoyl-D-alanyl)thio]-acetic acid and 120 μl of a phosphate buffer solution (pH=8.0) containing 5 mg/ml of 5,5'-dithiobis(2-nitrobenzoic) acid are then added, and
# the second incubation lasts 5 minutes (instead of 1 minute).
# [3] = biological target: T1, enzyme R39 (soluble D-alanyl-D-alanine carboxypeptidase produced by Actinomadura R39); assay: Enzymatic determination of penicillin G in milk with [(N-phenylacetyl-D-alanyl)thio]-acetic acid as substrate (Example 4); assay type: biochemical; conditions: substrate [(N-phenylacetyl-D-alanyl)thio]-acetic acid
# Protocol: The process is the same as in example 3, except that, after the first incubation, 120 μl of an aqueous solution containing 5 mg/ml of [(N-phenylacetyl-D-alanyl)thio]-acetic acid are added.
# [4] = biological target: T1, enzyme R39 (soluble D-alanyl-D-alanine carboxypeptidase produced by Actinomadura R39); assay: Enzymatic determination of penicillin G in serum, spectrophotometer at 410 nm (Example 7); assay type: biochemical; parameters: Optical density (at 410 nm): scale not given here; conditions: for Optical density (at 410 nm): blank subtracted, supernatant diluted 10 times
# Protocol: The procedure of example 3 is followed, but the 3 ml milk samples are replaced by 3 ml serum samples containing known concentrations of penicillin G.
# Moreover, after the second incubation lasting 5 minutes, the samples are centrifuged and the supernatants are diluted 10 times with water.
# Then, the optical density is measured with a spectrophotometer at 410 nm.
# The values of the optical density mentioned in Table VII are obtained by subtracting the optical density value found for the blank sample from the optical density values found respectively for the control sample and for the other samples.
# enzyme R39 = enzyme R39 (Actinomadura sp. R39, UniProt P39045); assay: Stability of the enzyme R39-antibiotic complex; assay type: binding; conditions: at 37° C.
# Protocol: the extraordinary stability of the said complex, because, once formed it only breaks down very slowly. By way of example, the half-life of the complex formed between enzyme R39 and penicillin G is about 70 hours at 37° C.; and […]
# [5] = biological target: T1, enzyme R39 (soluble D-alanyl-D-alanine carboxypeptidase produced by Actinomadura R39); assay: Enzymatic determination of penicillin G in milk, substrate and reagent combined in a tablet (Example 8); assay type: biochemical; conditions: substrate + reagent as tablet
# Protocol: The process is the same as in example 3. However, after the first incubation for a period of 10 minutes, a tablet is added which contains, 600 μg of [(N-benzoyl-D-alanyl)thio]-acetic acid and 600 μg of 5,5'-dithiobis(2-nitrobenzoic) acid.
# This tablet has the following overall composition (in % by weight): […]
# [6] = biological target: T1, enzyme R39 (soluble D-alanyl-D-alanine carboxypeptidase produced by Actinomadura R39); assay: Enzymatic determination of penicillin G in 50 μl milk samples, visual coloration (Example 1); assay type: biochemical; conditions: 1.5 picomole enzyme R39, 4 min + 1 min at 47° C.
# Protocol: A series of 50 μl milk samples is prepared containing known concentrations of penicillin G, and two 50 μl milk samples free from penicillin G (blank and control).
# 1.5 picomole of enzyme R39, dissolved in 10 μl of 0.5M Hepes buffer (pH=8.0) containing 0.5M NaCl and 0.25M MgCl2, and 20 μl of an aqueous solution containing 50 mg/ml of D-alanine are added to each sample (control sample+samples containing penicillin G). In the blank sample, enzyme R39 dissolved in Hepes buffer is replaced by 10 μl of 0.5M Hepes buffer (pH=8.0), containing 0.5M NaCl and 0.25M MgCl2 (Hepes=4-hydroxyethyl-1-piperazineethanesulfonic acid). The mixture is incubated at 47° C. for 4 minutes.
# Next, 5 μl of an aqueous solution containing 5 mg/ml [(N-benzoyl-D-alanyl)thio]-acetic acid and 10 μl of a phosphate buffer solution (pH=8.0; KH2 PO4 +K2 HPO4) containing 2 mg/ml of 5,5'-dithiobis(2-nitrobenzoic) acid are added and the mixture is incubated at 47° C. for 1 minute.
# The colorations obtained in the various samples are then observed.
# [7] = penicillin G 0.003 I.U./ml in 3 ml milk
# [8] = penicillin G 0.006 I.U./ml in 3 ml milk
# T1 sequence (P39045 50-515): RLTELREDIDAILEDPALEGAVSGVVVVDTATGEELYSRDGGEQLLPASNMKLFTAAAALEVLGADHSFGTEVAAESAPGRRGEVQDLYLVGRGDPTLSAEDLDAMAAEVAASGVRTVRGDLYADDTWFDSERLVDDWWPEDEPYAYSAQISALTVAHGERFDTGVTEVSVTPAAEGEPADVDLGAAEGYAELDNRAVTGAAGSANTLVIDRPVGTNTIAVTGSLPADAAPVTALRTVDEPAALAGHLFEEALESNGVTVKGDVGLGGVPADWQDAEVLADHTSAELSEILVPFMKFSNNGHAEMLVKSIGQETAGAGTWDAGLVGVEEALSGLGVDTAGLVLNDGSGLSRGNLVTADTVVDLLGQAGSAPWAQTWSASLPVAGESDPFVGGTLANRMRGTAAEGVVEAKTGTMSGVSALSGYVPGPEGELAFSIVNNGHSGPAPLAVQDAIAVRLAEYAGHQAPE
# enzyme R39, sequence (P39045 50-515): as above
smiles,measurement,setting,value
"CC1(C)S[C@@H]2[C@H](NC(=O)Cc3ccccc3)C(=O)N2[C@H]1C(=O)O [penicillin G, benzyl penicillin (penicillin G)]",Coloration,"[1]; penicillin G 0.003 I.U./ml in 3 ml milk, test I, activator D-alanine 100 mg/ml",pale yellow
same,Coloration,"[1]; penicillin G 0.003 I.U./ml in 3 ml milk, test II, activator D-phenylalanine 100 mg/ml",pale yellow
same,Coloration,"[1]; penicillin G 0.003 I.U./ml in 3 ml milk, test III, activator D-serine 100 mg/ml",pale yellow
same,Coloration,"[1]; penicillin G 0.003 I.U./ml in 3 ml milk, test IV, activator D-histidine 100 mg/ml",pale yallow
same,Coloration,"[1]; penicillin G 0.003 I.U./ml in 3 ml milk, test V, activator D-methionine 100 mg/ml",pale yellow
same,Coloration,"[1]; penicillin G 0.003 I.U./ml in 3 ml milk, test VI, activator D-2-aminobutyric acid 100 mg/ml",pale yellow
same,Coloration,"[1]; penicillin G 0.003 I.U./ml in 3 ml milk, test VII, activator glycine 200 mg/ml",pale yellow
same,Coloration,"[1]; penicillin G 0.006 I.U./ml in 3 ml milk, test I, activator D-alanine 100 mg/ml",white
same,Coloration,"[1]; penicillin G 0.006 I.U./ml in 3 ml milk, test II, activator D-phenylalanine 100 mg/ml",white
same,Coloration,"[1]; penicillin G 0.006 I.U./ml in 3 ml milk, test III, activator D-serine 100 mg/ml",white
same,Coloration,"[1]; penicillin G 0.006 I.U./ml in 3 ml milk, test IV, activator D-histidine 100 mg/ml",white
same,Coloration,"[1]; penicillin G 0.006 I.U./ml in 3 ml milk, test V, activator D-methionine 100 mg/ml",white
same,Coloration,"[1]; penicillin G 0.006 I.U./ml in 3 ml milk, test VI, activator D-2-aminobutyric acid 100 mg/ml",white
same,Coloration,"[1]; penicillin G 0.006 I.U./ml in 3 ml milk, test VII, activator glycine 200 mg/ml",white
same,penicillin G concentration in milk detected visually in large sample volumes,"[2]; 3 ml milk, in 15 minutes",0.004 I.U. per ml
same,Coloration,[2]; penicillin G 0.002 I.U./ml in 3 ml milk,medium yellow
same,Coloration,[2]; [7],pale yellow
same,Coloration,[2]; penicillin G 0.004 I.U./ml in 3 ml milk,white
same,Coloration,[2]; [8],white
same,Coloration,[3]; [7],pale yellow
same,Coloration,[3]; [8],white
same,Optical density (at 410 nm),[4]; penicillin G 0.002 I.U./ml in 3 ml serum,226
same,Optical density (at 410 nm),[4]; penicillin G 0.003 I.U./ml in 3 ml serum,175
same,Optical density (at 410 nm),[4]; penicillin G 0.004 I.U./ml in 3 ml serum,49
same,Optical density (at 410 nm),[4]; penicillin G 0.006 I.U./ml in 3 ml serum,15
same,penicillin G concentration determined quantitatively with a spectrophotometer,[4]; serum,0.002 I.U./ml
same,half-life of the complex formed between enzyme R39 and the antibiotic,enzyme R39,about 70 hours
same,Coloration,[5]; penicillin G 0.002 (in 1.U.ml) in 3 ml milk,medium yellow
same,Coloration,[5]; penicillin G 0.003 (in 1.U.ml) in 3 ml milk,pale yellow
same,Coloration,[5]; penicillin G 0.004 (in 1.U.ml) in 3 ml milk,white
same,Coloration,[5]; penicillin G 0.006 (in 1.U.ml) in 3 ml milk,white
same,Coloration,[6]; penicillin G 0.004 I.U./ml in 50 μl milk,intense yellow
same,Coloration,[6]; penicillin G 0.008 I.U./ml in 50 μl milk,medium yellow
same,Coloration,[6]; penicillin G 0.012 I.U./ml in 50 μl milk,pale yellow
same,Coloration,[6]; penicillin G 0.016 I.U./ml in 50 μl milk,white
same,Coloration,[6]; penicillin G 0.020 I.U./ml in 50 μl milk,white
same,Coloration,[6]; penicillin G 0.025 I.U./ml in 50 μl milk,white
